The values below come from patent publication US10647680B2, “Urea compound, preparation method therefor and medical use thereof” (Ancureall Pharmaceutical (Shanghai) Co., Ltd., priority 2016, dated 2020).

Read-outs that look alike come from different tables or passages of the source.

One assay concerns RS4; 11 (FLT3 wild type). Nature of the assay: In vitro growth inhibition (GI50), RS4; 11. In kind it is cell-based, human. The conditions noted are these: for GI50: Homo sapiens; for GI50 value, RS4; 11 (in words) / inhibitory effect on RS4; 11: FLT3 wild type high-expressing cells RS4; for inhibitory effect on RS4; 11: 11, under high concentrations.
The test system of another assay is MKN-45 (c-MET amp). Nature of the assay: In vitro growth inhibition (GI50), MKN-45. The note with it: Homo sapiens; MKN-45, cMET Amp+. Format: cell-based. From the text: Tumor cell line is an effective cell model for studying the inhibition of tumor cell growth or proliferation in vitro. In the present invention, a representative tumor cell line was selected to determine the cell growth inhibition activity of the present compound. All cell lines used were from ATCC, DSMZ, and the Cell Bank of the Chinese Academy of Sciences. Cell culture conditions and methods were in accordance with the requirements of each cell line. Cells were subcultured in vitro for no more than 3 passages each time, and as required, single-clone purification and identification of cell lines could be carried out.
The cell culture media used were RPMI1640 (Gibco), MEM (Gibco), McCOY'S5A (Gibco), and IMDM (Gibco). The complete medium was prepared by supplement with 5˜20% fetal calf serum (Gibco), 1% double-antibiotics (10000 units/mL penicillin and 10000 units/mL), 2 mM glutamine or 1 mM sodium pyruvate, respectively.
The human gastric cancer cell line MKN-45 (c-MET amp, ATCC) and the non-small cell lung cancer cell line NCI-H1993 (c-MET amp, ATCC) were cultured in complete medium comprising 1×RPMI1640 and 10% FBS, respectively.
Adherent cells were digested with 0.25% pancreatin-EDTA (Gibco). The suspension cells were collected by centrifugation. The supernatant was discarded and the cell pellet was resuspended and counted. Different cell concentrations (5˜10×10^4 cells/mL) were prepared according to the growth cycle of each cell line and then seeded on a 96-well plate (Corning), 100 μL/well. The cells were incubated overnight at 37° C., 5% CO2. The compounds were added to the cells on the second day with 2 wells in parallel. The final concentration of organic solvent shall not exceed 1%. The cells were continually incubated for 3 to 5 days, and then subjected to MTT assay.
The compound of the present invention and the control compound were dissolved in DMSO (Sigma) respectively, with the purity of more than 98%. The compound was stored in a concentration of 10 mM at −20° C. and diluted to 2- or 10-fold series prior to use.
Dojindo CCK8 reagent kit was used as MTT assay. THERMO […] FC meter was used as microplate reader.
For adherent cells, culture medium was removed and immediately replaced with the fresh prepared medium which contains 10% CCK8 reagent (100 μL/well). For the suspension cells, CCK8 was directly added to 10% of the final concentration. The cells were continually incubated for 1˜4 h. When a dark yellow color could be observed in the solvent control wells, the absorbance value at OD450 nm was measured and the cell growth rate was calculated according to the following formula: Cell Growth Rate (%)=100*(T−T0)/(C−T0) T=optical density of drug treatment cell well—optical density of blank control well; T0=optical density of cell well before drug treatment—optical density of blank control well; C=optical density of cell well of solvent control group—optical density of blank control well. The concentration value of 50% inhibition of cell growth (GI50) was calculated according to the drug concentration and cell growth rate curve. The experiment was independently repeated 1˜3 times, and subject to biological statistical analysis. 4. Experimental Results
Tumor cell growth inhibition test was performed by selecting representative compounds (compounds 4, 11, 12, 16, 27, 68, 71, 77, 79, 89 and 116 of the present invention). The initial concentration of the compound was 5,000 nM, then it was serially diluted by 2-fold or 10-fold to 0.01 nM. The GI50 value of each test compound was calculated according to the GI50 assay and calculation method. The experiments were repeated 1 to 3 times, and data were subjected to biological statistical analysis.

In a further assay the test system is U937 (FLT3 wild-type). Nature of the assay: In vitro growth inhibition (GI50), U937. Format: cell-based. The note with it: Homo sapiens, U-937; Cell lines of leukemia; read-out: GI 50 U937 FLT 3(WT).
[1] abbreviates: RS4-11, Cell lines of leukemia, read-out: GI 50 RS4: 11 FLT3 (WT).
[2] abbreviates: FLT3 wild-type high expressing cell RS4, 11, Table 3, read-out: GI50 value, RS4, 11.
Where [3] appears, read: RS4, 11, FLT3 WT, read-out: GI50.

On to `CC(C)(C)c1cc(NC(=O)Nc2ccc(-n3cnc4cc(O)ccc43)cc2)no1` [Compound 4, 1-(5-tert-butyl-isoxazol-3-yl)-3-[4-(5-hydroxy-benzimidazol-1-yl)-phenyl]-urea], for which the GI50 is 100 to 1000 nM in the assay with RS4; 11 (FLT3 wild type) (setting [1]); 50 to 800 nM in the assay with RS4; 11 (FLT3 wild type) (setting [2]); 234 nM in the assay on RS4; 11 (FLT3 wild type) (setting [3]); more than 2500 nM in the assay on MKN-45 (c-MET amp); 100 to 1000 nM in the assay on U937 (FLT3 wild-type).
Regarding `CC(C)(C)c1cc(NC(=O)Nc2ccc(-n3cnc4cc(OCCO)ccc43)cc2)no1` [Compound 11, 1-(5-tert-butyl-isoxazol-3-yl)-3-{4-[5-(2-hydroxy-ethoxyl)-benzimidazol-1-yl]-phenyl]-urea], the GI50 is 10 to 100 nM in the assay on RS4; 11 (FLT3 wild type) (setting [1]); 50 to 800 nM with RS4; 11 (FLT3 wild type) (setting [2]); 57.4 nM in the assay on RS4; 11 (FLT3 wild type) (setting [3]); more than 2500 nM in the assay with MKN-45 (c-MET amp); more than 1000 nM in the assay on U937 (FLT3 wild-type).
Turning to `CC(C)(C)c1cc(NC(=O)Nc2ccc(-n3cnc4cc(OCCN5CCOCC5)ccc43)cc2)no1` [Compound 16, 1-(5-tert-butyl-isoxazol-3-yl)-3-{4-[5-(2-morpholin-4-yl-ethoxyl)-benzimidazol-1-yl]-phenyl}-urea], the “GI50 value, RS4; 11 (in words)” value in the assay on RS4; 11 (FLT3 wild type) (11) is given as “micromolar range”. For the same molecule, in the assay on RS4; 11 (FLT3 wild type), the “inhibitory effect on RS4; 11” value was “no obvious inhibitory effect”. In addition, the GI50 in the assay on RS4; 11 (FLT3 wild type) (setting [1]) is more than 1000 nM; in the assay on RS4; 11 (FLT3 wild type) (setting [3]) it was 1750 nM; in the assay with MKN-45 (c-MET amp), more than 2500 nM; with U937 (FLT3 wild-type), more than 1000 nM.
For the molecule `CC(C)(C)c1cc(NC(=O)Nc2ccc(-n3cnc4ccc(OCCN5CCOCC5)cc43)cc2)no1` [Compound 27, 1-(5-tert-butyl-isoxazol-3-yl)-3-{4-[6-(2morpholin-4-yl-ethoxyl)-benzimidazol-1-yl]-phenyl}-urea], the “GI50 value, RS4; 11 (in words)” value in the assay with RS4; 11 (FLT3 wild type) (11) is “micromolar range”. In addition, in the assay with RS4; 11 (FLT3 wild type), the “inhibitory effect on RS4; 11” value is “no obvious inhibitory effect”. Moreover, the GI50 was more than 1000 nM in the assay on RS4; 11 (FLT3 wild type) (setting [1]), 2380 nM in the assay with RS4; 11 (FLT3 wild type) (setting [3]), more than 2500 nM in the assay with MKN-45 (c-MET amp) and more than 1000 nM with U937 (FLT3 wild-type).
Regarding `CC(C)(C)c1cc(NC(=O)Nc2ccc(-n3cnc4ccccc43)cc2)[nH]n1` [Compound 68, 1-(4-benzimidazol-1-yl-phenyl)-3-(5-tert-butyl-2H-pyrazol-3-yl)-urea], the “GI50 value, RS4; 11 (in words)” value in the assay with RS4; 11 (FLT3 wild type) (11) is listed as “micromolar range”. Further, in the assay on RS4; 11 (FLT3 wild type), the “inhibitory effect on RS4; 11” value is “no obvious inhibitory effect”. Further, the GI50 was more than 1000 nM with RS4; 11 (FLT3 wild type) (setting [1]), 3500 nM in the assay on RS4; 11 (FLT3 wild type) (setting [3]), more than 2500 nM in the assay on MKN-45 (c-MET amp) and more than 1000 nM with U937 (FLT3 wild-type).
Turning to `COc1ccc2c(c1)ncn2-c1ccc(NC(=O)Nc2cc(C(C)(C)C)n[nH]2)cc1` [Compound 71, 1-(5-tert-butyl-2H-pyrazol-3-yl)-3-[4-(5-methoxyl-benzimidazol-1-yl)-phenyl]-urea], the “GI50 value, RS4; 11 (in words)” value in the assay with RS4; 11 (FLT3 wild type) (11) is “micromolar range”. In addition, the “inhibitory effect on RS4; 11” value in the assay on RS4; 11 (FLT3 wild type) is reported as “no obvious inhibitory effect”. Further, the GI50 in the assay with RS4; 11 (FLT3 wild type) (setting [1]) is more than 1000 nM; in the assay with RS4; 11 (FLT3 wild type) (setting [3]) it was 2750 nM; with MKN-45 (c-MET amp) it was more than 2500 nM; in the assay on U937 (FLT3 wild-type), more than 1000 nM.
As to `COCCOc1ccc2c(c1)ncn2-c1ccc(NC(=O)Nc2cc(C(C)(C)C)n[nH]2)cc1` [Compound 77, 1-(5-tert-butyl-2H-pyrazol-3-yl)-3-{4-[5-(2-methoxyl-ethoxyl)-benzimidazol-1-yl]-phenyl}-urea], the “GI50 value, RS4; 11 (in words)” value with RS4; 11 (FLT3 wild type) (11) is “micromolar range”. Also, the “inhibitory effect on RS4; 11” value with RS4; 11 (FLT3 wild type) was “no obvious inhibitory effect”. The GI50 was more than 1000 nM in the assay on RS4; 11 (FLT3 wild type) (setting [1]), 2490 nM in the assay with RS4; 11 (FLT3 wild type) (setting [3]), more than 2500 nM with MKN-45 (c-MET amp) and more than 1000 nM in the assay with U937 (FLT3 wild-type).
Turning to `CC(C)(C)c1cc(NC(=O)Nc2ccc(-n3cnc4cc(OCCO)ccc43)cc2)[nH]n1` [Compound 79, 1-(5-tert-butyl-2H-pyrazol-3-yl)-3-{4-[5-(2-hydroxy-ethoxyl)-benzimidazol-1-yl]-phenyl]urea], the GI50 is more than 1000 nM in the assay on RS4; 11 (FLT3 wild type) (setting [1]); 50 to 800 nM with RS4; 11 (FLT3 wild type) (setting [2]); 768 nM in the assay with RS4; 11 (FLT3 wild type) (setting [3]); more than 2500 nM in the assay with MKN-45 (c-MET amp); more than 1000 nM in the assay with U937 (FLT3 wild-type).
As for `CC(C)(C)c1cc(NC(=O)Nc2ccc(-n3cnc4cc(OCCN5CCOCC5)ccc43)cc2)[nH]n1` [Compound 89, 1-(5-tert-butyl-2H-pyrazol-3-yl)-3-{4-[5-(2-morpholin-4-yl-ethoxyl)-benzimidazol-1-yl]-phenyl}-urea], in the assay with RS4; 11 (FLT3 wild type) (11), the “GI50 value, RS4; 11 (in words)” value is “micromolar range”. The “inhibitory effect on RS4; 11” value in the assay on RS4; 11 (FLT3 wild type) is recorded as “no obvious inhibitory effect”. For the same molecule, the GI50 with RS4; 11 (FLT3 wild type) (setting [1]) is more than 1000 nM; in the assay on RS4; 11 (FLT3 wild type) (setting [3]), 2090 nM; in the assay with MKN-45 (c-MET amp) it was more than 2500 nM; in the assay on U937 (FLT3 wild-type), more than 1000 nM.
Consider `CC(C)(C)c1cc(N)n(C(=O)Nc2ccc(-n3cnc4ccccc43)cc2)n1` [Compound 116, 5-amino-3-tert-butyl-pyrazol-1-carboxylic acid (4-benzimidazol-1-yl-phenyl)-amide], for which, in the assay with RS4; 11 (FLT3 wild type) (11), the “GI50 value, RS4; 11 (in words)” value is “micromolar range”. The “inhibitory effect on RS4; 11” value in the assay with RS4; 11 (FLT3 wild type) is “no obvious inhibitory effect”. The GI50 with RS4; 11 (FLT3 wild type) (setting [1]) was more than 1000 nM; with RS4; 11 (FLT3 wild type) (setting [3]), 2100 nM; with MKN-45 (c-MET amp), more than 2500 nM; in the assay with U937 (FLT3 wild-type), more than 1000 nM.
